# What was measured:
# CCRF-CEM = type: cell-based; conditions: one dose 10^-5 M, 48 h
# HL-60(TB) = type: cell-based; conditions: one dose 10^-5 M, 48 h
# K-562 = type: cell-based; conditions: 48 h
# MOLT-4 = type: cell-based; conditions: one dose 10^-5 M, 48 h
# RPMI-8226 = type: cell-based; conditions: one dose 10^-5 M, 48 h
# SR = type: cell-based; conditions: one dose 10^-5 M, 48 h
# A549/ATCC = type: cell-based; conditions: one dose 10^-5 M, 48 h
# EKVX = type: cell-based; conditions: one dose 10^-5 M, 48 h
# HOP-62 = type: cell-based; conditions: one dose 10^-5 M, 48 h
# HOP-92 = type: cell-based; conditions: one dose 10^-5 M, 48 h
# NCI-H226 = type: cell-based; conditions: one dose 10^-5 M, 48 h
# NCI-H23 = type: cell-based; conditions: one dose 10^-5 M, 48 h
# NCI-H460 = type: cell-based; conditions: one dose 10^-5 M, 48 h
# NCI-H522 = type: cell-based; conditions: one dose 10^-5 M, 48 h
# COLO 205 = type: cell-based; conditions: one dose 10^-5 M, 48 h
# HCC-2998 = type: cell-based; conditions: one dose 10^-5 M, 48 h
# HCT-116 = type: cell-based; conditions: one dose 10^-5 M, 48 h
# HCT-15 = type: cell-based; conditions: one dose 10^-5 M, 48 h
# HT29 = type: cell-based; conditions: 48 h
# KM12 = type: cell-based; conditions: one dose 10^-5 M, 48 h
# SW-620 = type: cell-based; conditions: one dose 10^-5 M, 48 h
# SF-268 = type: cell-based; conditions: one dose 10^-5 M, 48 h
# SF-295 = type: cell-based; conditions: one dose 10^-5 M, 48 h
# SF-539 = type: cell-based; conditions: one dose 10^-5 M, 48 h
# SNB-19 = type: cell-based; conditions: one dose 10^-5 M, 48 h
# SNB-75 = type: cell-based; conditions: one dose 10^-5 M, 48 h
# U251 = type: cell-based; conditions: 48 h
# LOX IMVI = type: cell-based; conditions: one dose 10^-5 M, 48 h
# MALME-3M = type: cell-based; conditions: one dose 10^-5 M, 48 h
# M14 = type: cell-based; conditions: one dose 10^-5 M, 48 h
# MDA-MB-435 = type: cell-based; conditions: one dose 10^-5 M, 48 h
# SK-MEL-2 = type: cell-based; conditions: one dose 10^-5 M, 48 h
# SK-MEL-28 = type: cell-based; conditions: one dose 10^-5 M, 48 h
# SK-MEL-5 = type: cell-based; conditions: one dose 10^-5 M, 48 h
# UACC-257 = type: cell-based; conditions: one dose 10^-5 M, 48 h
# UACC-62 = type: cell-based; conditions: one dose 10^-5 M, 48 h
# IGROV1 = type: cell-based; conditions: 48 h
# OVCAR-3 = type: cell-based; conditions: one dose 10^-5 M, 48 h
# OVCAR-4 = type: cell-based; conditions: one dose 10^-5 M, 48 h
# OVCAR-5 = type: cell-based; conditions: one dose 10^-5 M, 48 h
# OVCAR-8 = type: cell-based; conditions: one dose 10^-5 M, 48 h
# NCI/ADR-RES = type: cell-based; conditions: one dose 10^-5 M, 48 h
# SK-OV-3 = type: cell-based; conditions: one dose 10^-5 M, 48 h
# 786-0 = type: cell-based; conditions: one dose 10^-5 M, 48 h
# A498 = type: cell-based; conditions: one dose 10^-5 M, 48 h
# ACHN = type: cell-based; conditions: one dose 10^-5 M, 48 h
# CAKI-1 = type: cell-based; conditions: one dose 10^-5 M, 48 h
# SN12C = type: cell-based, human; conditions: one dose 10^-5 M, 48 h
# TK-10 = type: cell-based; conditions: one dose 10^-5 M, 48 h
# UO-31 = type: cell-based; conditions: one dose 10^-5 M, 48 h
# PC-3 = type: cell-based; conditions: one dose 10^-5 M, 48 h
# DU-145 = type: cell-based; conditions: one dose 10^-5 M, 48 h
# MCF7 = type: cell-based; conditions: one dose 10^-5 M, 48 h
# MDA-MB-231/ATCC = type: cell-based; conditions: one dose 10^-5 M, 48 h
# HS 578T = type: cell-based; conditions: one dose 10^-5 M, 48 h, HS 578T
# BT-549 = type: cell-based; conditions: one dose 10^-5 M, 48 h
# T-47D = type: cell-based; conditions: one dose 10^-5 M, 48 h
# MDA-MB-468 = type: cell-based; conditions: one dose 10^-5 M, 48 h
# [1] = test system: full NCI 60 cell lines panel; conditions: for activity on all 60 cancer cell lines tested (in words): one dose
# [2] = Homo sapiens, read-out: % growth
molecule,measurement,setting,value
"CN(C)c1ccc(-c2nc(S)nc(N)c2C(=N)NN=Cc2ccc(Cl)cc2Cl)cc1 [Compound 4f, 4-amino-N'-[(2,4-dichlorophenyl)methylene]-6-[4-(dimethylamino)phenyl]-2-mercapto pyrimidine-5-carboximidohydrazide]",% cell growth at 10 µM,CCRF-CEM; Homo sapiens,83.7%
same,% growth at 10 µM,HL-60(TB); Homo sapiens,88.4%
same,% growth at 10 µM,"K-562; Homo sapiens, K562, one dose 10^-5 M",70.2%
same,activity at 10 µM,MOLT-4; [2],100%
same,% growth at 10 µM,RPMI-8226; Homo sapiens,80.6%
same,percent cell growth at 10 µM,SR; Homo sapiens,73.2%
same,% growth at 10 µM,A549/ATCC; Homo sapiens,107%
same,% cell growth at 10 µM,EKVX; Homo sapiens,102%
same,% growth at 10 µM,HOP-62; Homo sapiens,103%
same,% growth at 10 µM,HOP-92; Homo sapiens,106%
same,% growth at 10 µM,NCI-H226; Homo sapiens,95.5%
same,activity at 10 µM,NCI-H23; [2],99.6%
same,activity at 10 µM,NCI-H460; [2],116%
same,% growth at 10 µM,NCI-H522; Homo sapiens,97.2%
same,% growth at 10 µM,COLO 205; Homo sapiens,166%
same,% growth at 10 µM,HCC-2998; Homo sapiens,115%
same,activity at 10 µM,HCT-116; [2],67.7%
same,activity at 10 µM,HCT-15; [2],76.7%
same,% growth at 10 µM,"HT29; Homo sapiens, HT-29, one dose 10^-5 M",107%
same,% growth at 10 µM,KM12; Homo sapiens,77.5%
same,% growth at 10 µM,SW-620; Homo sapiens,100%
same,activity at 10 µM,SF-268; [2],100%
same,% cell growth at 10 µM,SF-295; Homo sapiens,92.7%
same,% growth at 10 µM,SF-539; Homo sapiens,81.6%
same,activity at 10 µM,SNB-19; [2],90.4%
same,% growth at 10 µM,SNB-75; Homo sapiens,109%
same,% growth at 10 µM,"U251; Homo sapiens, U-251, one dose 10^-5 M",93.2%
same,activity at 10 µM,LOX IMVI; [2],83.3%
same,% growth at 10 µM,MALME-3M; Homo sapiens,96.8%
same,% growth at 10 µM,M14; Homo sapiens,103%
same,activity at 10 µM,MDA-MB-435; [2],91.8%
same,% growth at 10 µM,SK-MEL-2; Homo sapiens,108%
same,% cell growth at 10 µM,SK-MEL-28; Homo sapiens,104%
same,activity at 10 µM,SK-MEL-5; [2],99.3%
same,percent cell growth at 10 µM,UACC-257; Homo sapiens,109%
same,% growth at 10 µM,UACC-62; Homo sapiens,92.3%
same,activity at 10 µM,"IGROV1; Homo sapiens, IGROV-1, one dose 10^-5 M, read-out: % growth",102%
same,% growth at 10 µM,OVCAR-3; Homo sapiens,110%
same,% growth at 10 µM,OVCAR-4; Homo sapiens,104%
same,percent cell growth at 10 µM,OVCAR-5; Homo sapiens,107%
same,% growth of cells at 10 µM,OVCAR-8; Homo sapiens,106%
same,cell growth percent at 10 µM,NCI/ADR-RES; Homo sapiens,101%
same,% growth at 10 µM,SK-OV-3; Homo sapiens,125%
same,% growth at 10 µM,786-0; Homo sapiens,84.9%
same,% growth at 10 µM,A498; Homo sapiens,114%
same,% growth at 10 µM,ACHN; Homo sapiens,107%
same,% growth at 10 µM,"CAKI-1; Homo sapiens, CAKI-1, 48 h",102%
same,% growth at 10 µM,SN12C; Homo sapiens,93.7%
same,% cell growth at 10 µM,TK-10; Homo sapiens,114%
same,% cell growth at 10 µM,"UO-31; Homo sapiens, UO-31, 48 h",70.2%
same,percent cell growth at 10 µM,PC-3; Homo sapiens,89.8%
same,% growth at 10 µM,DU-145; Homo sapiens,111%
same,activity at 10 µM,MCF7; [2],75.3%
same,% growth at 10 µM,MDA-MB-231/ATCC; Homo sapiens,99.5%
same,activity at 10 µM,HS 578T; [2],96.8%
same,% cell growth at 10 µM,BT-549; Homo sapiens,119%
same,activity at 10 µM,"T-47D; Homo sapiens, T47D, read-out: % growth",104%
same,percent cell growth at 10 µM,MDA-MB-468; Homo sapiens,113%
same,activity at 10 µM,"[1]; Homo sapiens, 60 cell, 48 h, read-out: Mean % growth",98.9%
same,activity on all 60 cancer cell lines tested (in words),[1],weak activity
4-Amino-6-[4-(dimethylamino)phenyl]-2-mercaptopyrimidine-5-carboximidohydrazide [Compound 2a],% growth,CCRF-CEM,91.59%
same,% growth,HL-60(TB),99.62%
same,% growth,K-562; one dose 10^-5 M,103.46%
same,% growth,MOLT-4,109.54%
same,% growth,RPMI-8226,98.02%
same,% growth,SR,102.70%
same,% growth,A549/ATCC,107.34%
same,% growth,EKVX,95.76%
same,% growth,HOP-62,107.78%
same,% growth,HOP-92,114.12%
same,% growth,NCI-H226,96.50%
same,% growth,NCI-H23,104.78%
same,% growth,NCI-H460,102.69%
same,% growth,NCI-H522,100.34%
same,% growth,COLO 205,134.76%
same,% growth,HCC-2998,114.82%
same,% growth,HCT-116,103.97%
same,% growth,HCT-15,103.47%
same,% growth,HT29; one dose 10^-5 M,107.55%
same,% growth,KM12,103.89%
same,% growth,SW-620,105.68%
same,% growth,SF-268,101.57%
same,% growth,SF-295,112.06%
same,% growth,SF-539,107.89%
same,% growth,SNB-19,101.46%
same,% growth,SNB-75,115.82%
same,% growth,U251; one dose 10^-5 M,106.99%
same,% growth,LOX IMVI,101.99%
same,% growth,MALME-3M,100.97%
same,% growth,M14,103.05%
same,% growth,MDA-MB-435,114.53%
same,% growth,SK-MEL-2,117.18%
same,% growth,SK-MEL-28,108.97%
same,% growth,SK-MEL-5,104.41%
same,% growth,UACC-257,109.40%
same,% growth,UACC-62,96.91%
same,% growth,IGROV1; one dose 10^-5 M,109.01%
same,% growth,OVCAR-3,105.79%
same,% growth,OVCAR-4,96.78%
same,% growth,OVCAR-5,116.97%
same,% growth,OVCAR-8,116.82%
same,% growth,NCI/ADR-RES,104.56%
same,% growth,SK-OV-3,120.70%
same,% growth,786-0,105.86%
same,% growth,A498,129.90%
same,% growth,ACHN,99.26%
same,% growth,CAKI-1,93.33%
same,% growth,SN12C,106.67%
same,% growth,TK-10,112.54%
same,% growth,UO-31,69.66%
same,% growth,PC-3,87.24%
same,% growth,DU-145,111.10%
same,% growth,MCF7,86.35%
same,% growth,MDA-MB-231/ATCC,103.57%
same,% growth,HS 578T,111.82%
same,% growth,BT-549,106.15%
same,% growth,T-47D,99.52%
same,% growth,MDA-MB-468,117.68%
same,activity on all 60 cancer cell lines tested (in words),[1],weak activity
same,Mean % growth,"[1]; one dose 10^-5 M, 48 h, mean over all cell lines",105.50%
